# Key:
# nitrile hydratase [1] = biological target: T1, nitrile hydratase (Pseudomonas chlororaphis, UniProt P27763+P27764); experiment: Preservation of nitrile hydration activity of polyacrylamide gel-immobilized cells left standing; assay type: cell-based, Pseudomonas chlororaphis B23 (FERM BP-187); details: Table 7
# T1 sequence (P27764 1-200): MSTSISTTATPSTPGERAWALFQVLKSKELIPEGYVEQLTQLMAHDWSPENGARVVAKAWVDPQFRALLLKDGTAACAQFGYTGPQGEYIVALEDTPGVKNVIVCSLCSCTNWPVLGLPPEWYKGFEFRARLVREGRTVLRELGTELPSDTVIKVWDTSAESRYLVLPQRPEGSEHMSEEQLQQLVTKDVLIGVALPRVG
# T1 sequence (P27763 1-220): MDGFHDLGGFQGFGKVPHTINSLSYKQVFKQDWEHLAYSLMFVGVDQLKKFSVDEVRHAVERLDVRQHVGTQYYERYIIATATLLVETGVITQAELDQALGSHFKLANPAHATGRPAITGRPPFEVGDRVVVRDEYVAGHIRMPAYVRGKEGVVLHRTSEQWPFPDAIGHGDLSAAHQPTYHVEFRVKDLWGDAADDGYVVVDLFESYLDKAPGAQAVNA
# Description: 40 ml of washed cells (water content 75%) prepared as in Example 1, 4.5 g of acrylamide, 0.5 g of N,N'-methylenebisacrylamide, and 40 ml of M/20 phosphate buffer (containing 10 g/l of ammonium isobutyrate, pH 6.0) were mixed to form a homogeneous suspension. To this suspension were added 5 ml of a 5% aqueous solution of dimethylaminopropionitrile and 10 ml of a 1% aqueous solution of potassium persulfate, and the mixture was maintained at 10° C. for 30 minutes to cause polymerization. A mass of cell-containing gel obtained was crushed into small particles, which were thoroughly washed with M/20 phosphate buffer containing 5 g/l of ammonium isobutyrate, pH 7.0, whereby approximately 90 g of immobilized cells were obtained.
# The washed, immobilized cells thus obtained were placed in the same buffer containing 5 g/l of isobutyric acid and left standing at 0° C. for 5 days. […]
# The nitrile hydration activity levels of the gel samples were measured as follows before and after the respective immobilized cells were left standing.
# 1 g of immobilized gel was mixed with 5 g of acrylonitrile and 97 ml of M/20 phosphate buffer (pH 7.7), and the mixture was subjected to reaction at 0° C. for 20 minutes with stirring. The quantities of acrylamide in the respective reaction solutions were determined by gas chromatography.
# nitrile hydratase [2] = biological target: T1, nitrile hydratase; experiment: Preservation of nitrile hydration activity of cell extract (crude enzyme solution) left standing; assay type: biochemical, Pseudomonas chlororaphis B23 (FERM BP-187); details: Table 6
# Description: The resultant cell suspension was pressed in a French press (fabricated by Ohtake Seisakusho, Japan) to crush cells under a pressure of 1,000 to 1,500 kg G and then subjected to centrifugation (12,000 rpm, 30 minutes) to remove uncrushed cells and insolubles such as cell walls, whereby a cell extract, i.e. a crude enzyme solution, was obtained.
# For comparison purposes, a similar cell suspension (3.2×10^3 U/ml) which contained no ammonium isobutyrate was prepared and subjected to a French press treatment and centrifugation under similar conditions, whereby a control cell extract was obtained.
# nitrile hydratase [3] = biological target: T1, nitrile hydratase; experiment: Preservation of nitrile hydration activity of enzyme immobilized on DEAE-Cellulofine AM left standing; assay type: biochemical, Pseudomonas chlororaphis B23 (FERM BP-187); details: Table 8
# Description: 25 ml each of a cell extract containing ammonium isobutyrate and a control cell extract containing no ammonium isobutyrate prepared as in Example 95 and comparison Example 11 were mixed with 15 g each of DEAE-Cellulofine AM (supplied by Seikagaku Kogyo Co., Ltd., Japan) equilibrated with M/20 phosphate buffer (pH 7.7). The mixture was stirred at 0° C. for 90 minutes to immobilize the enzymes.
# The results are presented in Table 8 in which the protein levels in the immobilized enzymes were determined in accordance with the procedure of Lowry et al.
smiles,measurement,setting,value
"CC(C)C(=O)O.N [Ammonium Isobutyrate, ammonium isobutyrate]",Quant. of AA produced (%) after cells were left standing,"nitrile hydratase [1]; immobilized cells left standing at 0° C. for 5 days in buffer with 5 g/l stabilizer, control without: 0.52",0.93%
same,Quant. of AA produced (%) before cells were left standing,"nitrile hydratase [1]; immobilized cells, 1 g gel + 5 g acrylonitrile, 0° C., 20 minutes, control without: 0.88",1.02%
same,Activity Before Being Left Standing,"nitrile hydratase [2]; cell extract from suspension mixed 1:1 with buffer (pH 6.5) containing 10 g/l ammonium isobutyrate, control without: 2.7 × 10^3",2.9 × 10^3 U/ml
same,Activity After Being Left Standing,"nitrile hydratase [2]; cell extract, 3 days ice-cooled, control without: 1.0 × 10^3",2.8 × 10^3 U/ml
same,% Residual Activity,"nitrile hydratase [2]; cell extract, 3 days ice-cooled, control without: 38",94%
same,Activity Before Being Left Standing,"nitrile hydratase [3]; enzyme immobilized on DEAE-Cellulofine AM, control without: 4.6",19.4
same,Activity After Being Left Standing,"nitrile hydratase [3]; immobilized enzyme, 3 days ice-cooled, control without: 1.7",18.4
same,% Residual Activity,"nitrile hydratase [3]; immobilized enzyme, 3 days ice-cooled, control without: 37",95%

# Reference: patent publication US4900672A, “Method for preservation of nitrile hydration activity” (Nitto Kagaku Kogyo Kabushiki Kaisha, priority 1986, dated 1990)
